Assay results: the METLIN SMRT retention time set (Domingo-Almenara et al. 2019)

Test: gradient 5% acetonitrile 3 min, to 50% in 2 min, to 85% in 15 min, held 3 min, 100 µL/min
Conditions: column: Zorbax Extend-C18 2.1 x 50 mm; eluents: water / acetonitrile, 0.1% formic acid
Method in brief: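 Standards, all pure, were combined into mixtures of ~100 molecules and run at 100 μL/min on a Zorbax Extend-C18 column (2.1 × 50 mm, 1.8 μm) with water and acetonitrile, each containing 0.1% formic acid. A coupled quadrupole time-of-flight mass spectrometer operated in positive and negative ionization mode. Retention time values come from computationally picked adduct peaks, each inspected manually.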

Structure (SMILES) | RP-LC retention time [s]
Cc1noc(C)c1-c1ccc(S(=O)(=O)NCC2CCCO2)cc1 (configuration not stated) | 767
Cn1cc(CC(=O)N2CCN(c3ncccn3)CC2)c2ccccc21 | 720
CN(C)c1nccnc1OC1CCN(C(=O)c2ccncc2)C1 (configuration not stated) | 553
COc1ccc(N2CCN(Cc3cc(=O)c(OC)cn3CC(=O)NC(C)C)CC2)cc1 | 557
O=C(Cc1cccc(Cl)c1)NC1CCN(c2cc(-c3ccc(F)cc3)[nH]n2)C1 (configuration not stated) | 741
CC(C)c1ccc(-c2ccnc3c(C(=O)NCCCc4ccco4)cnn23)cc1 | 1180
COc1ccc(N2CCN(S(=O)(=O)c3cc(-c4cc(C(F)(F)F)[nH]n4)sc3C)CC2)cc1 | 1090
CN(C)CCN(Cc1ccco1)C(=O)c1c2c(nc3ccccc13)C(=O)N(C1CCCCC1)C2 | 581
O=C1NC(C(=O)Nc2ccc3c(c2)OCCO3)Cn2cccc21 (configuration not stated) | 643
Cn1c(C(=O)NCCN2CCOCC2)cc2c(=O)oc3ccccc3c21 | 603
O=C(Nc1ccccc1)c1n[nH]c2c1CCCCCC2 | 957
O=C(Nc1ccc(-n2cnnn2)cc1)c1ccc(OCc2nc(C3CC3)cs2)cc1 | 823
CC(C)c1ccc2oc3nc(N)c(C(=O)O)cc3c(=O)c2c1 | 891
CCCNC(=O)Nc1ccc(NC(=O)N2CCC(C(=O)NCC)CC2)cc1 | 588
Cc1cccc(NC(=O)N2CCN(Cc3cn(C)c4ccccc34)CC2)c1 | 681
Cc1cc(C)cc(C(=O)N2CCCC(C(=O)NCCN(C)C)C2)c1 (configuration not stated) | 599
CC(C)CCN1CC(=O)N(Cc2ccc(N3CCOCC3)cc2)C(c2cccs2)C1=O (configuration not stated) | 836
O=C(NCc1ccccc1Cl)C(=O)c1c[nH]c2ccccc12 | 936
CC(C)NC(=O)C1CC(=O)N(CCc2c[nH]c3ccc(Cl)cc23)C1 (configuration not stated) | 731
CC(C)c1nc(-n2cccc2)sc1C(=O)NC1CC1 | 985
COc1ccccc1N1CCN(c2ccc3cc(S(=O)(=O)N4CCCC4)ccc3n2)CC1 | 855
Cc1ccc(NC(=O)N2CCC(C(C)C(=O)Nc3ccccc3F)CC2)cc1 (configuration not stated) | 869
O=C(NC1CCCCC1)N1CCC2(CC1)NCc1ccccc1-n1ccnc12 | 608

Structure (SMILES) | RP-LC retention time [s]
NS(=O)(=O)c1cccnc1Nc1ccc(Oc2ccccc2)cc1 | 953
O=C(NC1CCCCCC1)c1ccc(CN2C(=O)C3CCCN3C(=O)c3ccccc32)cc1 (configuration not stated) | 818
Cc1noc(C)c1CCC(=O)N1CCC(c2nc(C3CC3)n[nH]2)CC1 | 564
CCCCNC(=O)C1CCN(C(=O)c2cc3ccsc3n2Cc2ccc(Cl)cc2)CC1 | 1010
O=c1c2cc3c(cc2nc(SCc2nc(-c4ccccc4)no2)n1Cc1ccccc1)OCO3 | 1240
COc1ccc(-c2nc(CN3C(=O)C(O)(c4ccccc4)c4ccccc43)c(C)o2)cc1 (configuration not stated) | 1040
CCC(C)CC(=O)N1CCCN(C2=NS(=O)(=O)C(c3ccc(C)cc3)=C2C)CC1 (configuration not stated) | 900
Cc1[nH]c(C)c(S(=O)(=O)N2CCC(C(=O)NC3CCCC3)CC2)c1C(=O)N1CCCC1 | 659
COc1ccc(-c2noc(C3CCCN3C(=O)c3c(OC)cccc3OC)n2)cc1 (configuration not stated) | 960
Cc1noc(-c2ccc(-n3cnc(C(=O)NC4CCCCCC4)c3)nc2)n1 | 896
Cc1ccc(-c2noc(-c3cccc(S(=O)(=O)NCCCN4CCCCCC4)c3)n2)cc1 | 832
CCc1nncn1C1CCN(C(=O)c2cc(F)ccc2F)CC1 | 604
O=C(c1ccccn1)N1CC(n2cc(COc3ccncc3)nn2)C1 | 566
Cc1c(C2CCN(C(=O)c3n[nH]c4ccccc34)CC2)noc1N | 643
Cc1ccccc1CN1C(=O)CN(S(=O)(=O)c2ccccc2)CC1(C)C(=O)NCc1ccccc1 (configuration not stated) | 905
CCOc1ccccc1NC(=O)Cn1ccc2ccc(-c3nnc(CC)o3)cc21 | 928
Cc1ccc2[nH]c(=O)c(CCC(=O)NCCCN3CCCC(C)C3)cc2c1 (configuration not stated) | 594
CCOC(=O)c1ccc(NS(=O)(=O)N2CCOCC2)cc1 | 724
CC(C)(C)NC(=O)C1CCN(S(C)(=O)=O)c2cc(Cl)ccc2O1 (configuration not stated) | 898
CN(CC(=O)O)c1nc2c(Cl)cc(Cl)cc2s1 | 888
CCn1cc(-c2nc(C(=O)Nc3cc(OC)cc(OC)c3)cs2)c2cccnc21 | 1030
Cc1ccc(-c2nnc(SCc3noc(CCC(=O)Nc4ccc(F)c(Cl)c4)n3)o2)cc1 | 1020
CCN1CCN(CCCNC(=O)C2Cn3cccc3C(=O)N2CC(C)C)CC1 (configuration not stated) | 558

Structure (SMILES) | RP-LC retention time [s]
O=C(NC1(c2nc(-c3ccncc3)no2)CCCCC1)c1ccc(C(F)(F)F)cc1 | 1030
O=C(Nc1cccc([N+](=O)[O-])c1)C1(c2cccs2)CCOCC1 | 558
CCN1C(=O)c2cccnc2Sc2cc(C(=O)N3CCCCC3)ccc21 | 730
Cc1cc(NC(=O)CCn2cnc3ccccc3c2=O)sn1 | 619
CCS(=O)(=O)N1CCc2nn(Cc3ccccc3)c(=O)n2CC1 | 687
CCOc1ccc(N(C)S(=O)(=O)c2ccsc2C(=O)NC2CCCC2)cc1 | 1030
COc1nn(C)cc1C(=O)Nc1nc(-c2ccc3c(c2)CCCC3)cs1 | 1090
O=C(NCc1cccnc1)C1CCN(Cc2cc3ccccc3n2Cc2cccc(F)c2)CC1 | 608
COC(=O)c1ncn2c1C(=O)N(C1CC1)C(C)(C(=O)NCc1cccc(C)c1)C2 (configuration not stated) | 658
Cc1nc(-c2ccc(C(=O)N3CCCC3)cc2)no1 | 675
O=C(c1nc(-c2ccnc(N3CCCCC3)c2)no1)N1CCCCC1 | 764
CN(C)c1ccc(/C=C2\Cc3ccccc3C2=O)cc1Br | 1170
O=c1c2cnc3nc(-c4ccccc4Cl)nn3c2ccn1CCc1c[nH]c2ccc(F)cc12 | 947
Cc1cc(C)cc(-n2ccn3c(CCC(=O)NCCc4c[nH]c5ccccc45)nnc3c2=O)c1 | 744
O=C(c1ccc(OCC2CCCN2C(=O)c2ccc(F)cc2F)cc1)N1CCOCC1 (configuration not stated) | 723
O=c1[nH]cc(I)cc1I | 723
O=S(=O)(c1ccc(Cl)cc1)N1CCc2nc(-c3ccc(Cl)cc3)ncc2C1 | 1270
C=CCNC(=O)c1cnn(-c2ccc(-c3nc(C(C)C)no3)cn2)c1C | 903
Cc1ccc(C)c(NC(=O)Cn2nc3cc(C)nc(N4CCCC4)n3c2=O)c1 | 785
COc1ccc(C(O)CN2CCN(c3cccc(C)c3)CC2)cc1 (configuration not stated) | 671
CCOc1ccc(-c2cc(C(=O)N3CCN(c4ccccn4)CC3)c3ccccc3n2)cc1 | 726
